Each structure is given as a SMILES string.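 Grown in 96-well plates, cells were treated for 48 hours with each compound at five concentrations. Insufficient inhibition: endpoint recorded as highest concentration tested. Here, GI50 denotes the concentration required for 50% inhibition of growth.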 Activity calls are given as the source filed them. Rule as the data show it: active = GI50 up to about 1.1 µM and inactive = higher. Some results are limits rather than exact numbers.

Common to all, as to assay: NCI-60 cell line screen, 48 h
The subject of assay [1] is DLD-1.
For assay [2], the system named is DMS-114.
Assay [3] has as its system DMS-273.
For assay [4], the system named is HOP-18.
Assay [5] relates to LXFL 529.
In assay [6] the test system is M19-MEL.
The test system of assay [7] is RXF 631.
Assay [8] concerns XF498.
For assay [9], the system named is SNB-78.

In the case of `CCOC(=O)C1C(=O)c2cccc(OC)c2C2COC(=O)N12` (stereo not drawn), the GI50 in assay [1], in assay [2], in assay [3], in assay [4], in [5] and in assay [6] was > 100 µM (inactive) each time. The GI50 in [7] and in assay [8] was > 100 µM (inactive) throughout.

In the case of `CC1/C=C/[C@@]2(C)CCC(C(C)(C)O)C2C(O)C[C@](C)(O)/C=C/C1` (stereo partly drawn), the GI50 in [1], in assay [2], in assay [3], in assay [4], in assay [5] and in assay [9] was > 100 µM (inactive) each time. In [8], the GI50 was > 100 µM (inactive).

For the molecule `CN(C)CCN1C(=O)c2cccc3cc([N+](=O)[O-])cc(c23)C1=O` [MITONAFIDE], the GI50 was 0.873 µM (active) in assay [1]; 0.223 µM (active) in assay [2]; 0.0514 µM (active) in assay [3]; 0.652 µM (active) in [4]; 0.682 µM (active) in [5]; 0.377 µM (active) in assay [6]. For the same molecule, the GI50 in assay [7] is 0.171 µM (active); in assay [9], 2 µM (inactive); in [8] it was 0.303 µM (active).

With `[O-][n+]1c2cc(CBr)c(CBr)cc2[n+]([O-])c2c(O)cccc21`, the GI50 in assay [1] is 1.41 µM (inactive); in assay [2] it was 1.69 µM (inactive); in [3], 1.68 µM (inactive); in [4], 2.39 µM (inactive); in assay [5], 1.56 µM (inactive); in assay [6], 1.73 µM (inactive). For the same molecule, the results for the GI50 in assay [7], in [9] and in assay [8] were 3.15 µM (inactive), 1.94 µM (inactive) and 2.35 µM (inactive), respectively.

Regarding `c1ccc(SC(CCCCC(Sc2ccccc2)Sc2ccccc2)Sc2ccccc2)cc1`, the GI50 in [1], in assay [2], in assay [3], in [5], in assay [6] and in assay [7] was > 100 µM (inactive) each time. The GI50 in assay [9] and in assay [8] was > 100 µM (inactive) in each case.

Turning to `CO[C@@H]1C=C[C@@]23c4cc5c(cc4C(=O)O[C@H]2CN(C)[C@H]3C1)OCO5`, the GI50 in assay [1], in assay [2], in [3], in assay [4], in assay [5] and in [6] was > 100 µM (inactive) in each case. Also, the GI50 in [9] and in [8] was > 100 µM (inactive) throughout.

For `CC1(C(=O)O)CCC[C@@]2(C)C1CC[C@@]1(C)c3cocc3CCC21` (stereo partly drawn), the GI50 in assay [1], in assay [2], in assay [3], in [4], in assay [5] and in assay [6] was > 100 µM (inactive) in each case. Moreover, the GI50 in [7], in assay [9] and in assay [8] was > 100 µM (inactive) in each case.

For `COc1ccccc1/C=C(\NC(=O)c1ccccc1)c1nc2ccc(Cl)cc2[nH]1`, the GI50 in assay [1] is 23.8 µM (inactive); in assay [2] it was 17.2 µM (inactive); in assay [3], 37.1 µM (inactive); in assay [4] it was 26.2 µM (inactive); in assay [5], 21.1 µM (inactive); in [6], 32.9 µM (inactive). Further, the results for the GI50 in assay [9] and in [8] were 38.9 µM (inactive) and 34.4 µM (inactive), respectively.

As for `Nc1nc[n+](Cc2ccccc2)c2ncn(Cc3ccccc3)c12`, the GI50 in assay [1] is 80.2 µM (inactive); in assay [3] it was > 100 µM (inactive); in assay [4] it was > 100 µM (inactive); in assay [5], > 100 µM (inactive); in assay [6] it was > 100 µM (inactive); in assay [9], 75 µM (inactive).

For the molecule `CC1=CCN(c2ccccn2)OC1c1ccccc1` (stereo not drawn), the GI50 in assay [1], in assay [2], in assay [3], in assay [4], in assay [5] and in assay [6] was > 100 µM (inactive) throughout. Further, the GI50 in assay [7], in assay [9] and in assay [8] was > 100 µM (inactive) throughout.

`O=[N+]([O-])c1ccc(C2CC(c3ccccc3Cl)=Nc3ccccc3S2)cc1` (stereo not drawn): the GI50 in assay [1] was 2.3 µM (inactive); in assay [2], 2.19 µM (inactive); in [3], 4.71 µM (inactive); in assay [4], 3.3 µM (inactive); in assay [5], 2.84 µM (inactive); in assay [6], 10.5 µM (inactive). Moreover, the values for the GI50 in [7], in assay [9] and in [8] were 5.74 µM (inactive), 16.1 µM (inactive) and 7.13 µM (inactive), respectively.

Take `CCOc1ccccc1NC(=O)C(=O)C(C(=O)c1ccc2ccccc2c1)C1OC(=O)c2ccccc21` (stereo not drawn): the GI50 in [1] is 15.2 µM (inactive); in assay [2], 9.62 µM (inactive); in [3], 12.3 µM (inactive); in assay [4], 16.6 µM (inactive); in assay [5], 5.21 µM (inactive); in [7], 6.18 µM (inactive). Further, the GI50 in [9] was 11.6 µM (inactive).

For the molecule `CCCCCCCCCCCCCC(=O)OCC1OC(OC)C(NC(=O)N(CCCl)N=O)C(O)C1O` (stereo not drawn), the GI50 in assay [1] was 20.8 µM (inactive); in assay [2] it was 18.5 µM (inactive); in assay [3], 12.9 µM (inactive); in assay [4], > 100 µM (inactive); in [5] it was 16.3 µM (inactive); in assay [7], 20.9 µM (inactive). Besides, the GI50 in [9] was 25.5 µM (inactive); in [8] it was 15.9 µM (inactive).

For the molecule `O=C(Nc1nnc(S)[nH]1)C(=O)C1C(=O)Nc2ccccc2[S+]1[O-]` (stereo not drawn), the GI50 in assay [2], in assay [3], in assay [4], in assay [5], in assay [6] and in assay [7] was > 100 µM (inactive) in each case.

For `O=c1[nH]nc(-c2ccccc2)c(-c2ccccc2)c1-n1nc(-c2ccccc2)c2ccccc2c1=O`, the GI50 in assay [1] is 76.7 µM (inactive); in assay [3] it was 89.5 µM (inactive); in assay [4], > 100 µM (inactive); in assay [5] it was 46.8 µM (inactive); in assay [6], > 100 µM (inactive); in [9] it was > 100 µM (inactive).

With `O=C1/C(=C\c2ccccc2)c2ccccc2N1/N=C\c1ccccc1`, the GI50 is 59 µM (inactive) in assay [1]; > 100 µM (inactive) in [2]; > 100 µM (inactive) in assay [3]; > 100 µM (inactive) in [4]; 97.7 µM (inactive) in [6]; > 100 µM (inactive) in [9]. Besides, in assay [8], the GI50 is > 100 µM (inactive).

As to `NC(CSC(c1ccccc1)(c1ccccc1)c1ccccc1)C(=O)O` (stereo not drawn), the GI50 was 0.7 µM (active) in assay [1]; 0.235 µM (active) in [3]; 4.14 µM (inactive) in assay [4]; 7.76 µM (inactive) in assay [5]; 3.19 µM (inactive) in assay [6]; 2.61 µM (inactive) in [9].

On to `COc1ccccc1OCC(COC(=O)Nc1ccc(C)cc1)OC(=O)Nc1ccc(C)cc1` (stereo not drawn), for which the GI50 in assay [1] was 16 µM (inactive); in assay [2] it was 14.7 µM (inactive); in assay [3], 16.7 µM (inactive); in assay [4], 18.4 µM (inactive); in assay [5], 27.1 µM (inactive); in [7], 19.4 µM (inactive). The GI50 in [9] is 26.7 µM (inactive).

`O=C(N/N=C(/c1nc2ccc([N+](=O)[O-])cc2[nH]c1=O)C(O)c1ccc([N+](=O)[O-])cc1)c1ccncc1` (stereo not drawn): the GI50 is > 100 µM (inactive) in [1]; 13.4 µM (inactive) in [2]; > 100 µM (inactive) in assay [4]; 53.1 µM (inactive) in [5]; > 100 µM (inactive) in assay [6]; > 100 µM (inactive) in assay [9]. Moreover, the GI50 in assay [8] was > 100 µM (inactive).

Turning to `O=C1N=C2Sc3ccc4ccccc4c3N2C1=O`, the GI50 in assay [1] was 31.1 µM (inactive); in assay [2] it was 39.7 µM (inactive); in assay [3], 22.8 µM (inactive); in assay [4] it was 15 µM (inactive); in assay [5], 18.7 µM (inactive); in [6] it was 36.1 µM (inactive). The GI50 in assay [7] was 20.8 µM (inactive); in [9] it was 26.4 µM (inactive); in [8], 19.2 µM (inactive).

As to `C[N+](C)(C)CC(=O)N/N=C(/Cc1nc2ccc(Cl)cc2nc1O)C1=NS(=O)(=O)c2cc(S(N)(=O)=O)c(Cl)cc2N1`, the GI50 in assay [1], in assay [2] and in [6] was > 100 µM (inactive) each time.

Take `N=C1SCCS1`: the GI50 in [1], in assay [2], in assay [5], in assay [6], in assay [9] and in assay [8] was > 100 µM (inactive) each time.

Consider `C=C(Br)C(C)(Br)CCC(Br)C(C)(C)Br` (stereo not drawn), for which the GI50 in [1] was 37 µM (inactive); in assay [2], 17.2 µM (inactive); in assay [3] it was 19.2 µM (inactive); in assay [4], > 100 µM (inactive); in [5], 20.5 µM (inactive); in assay [6], 17 µM (inactive). For the same molecule, in assay [9], the GI50 was 26.2 µM (inactive).

Take `Cc1ccc(NC(=O)C(=O)C(C(=O)/C=C/c2ccccc2)C2OC(=O)c3ccccc32)c(C)c1` (stereo not drawn): the GI50 in assay [1], in assay [2], in assay [5], in assay [6], in assay [7] and in assay [9] was > 100 µM (inactive) throughout. In assay [8], the GI50 is > 100 µM (inactive).

As to `CC1(C)COC(C23C4C5C2C2C3C4C52I)=N1` (stereo not drawn), the GI50 in assay [1], in [2], in assay [4], in assay [5], in assay [6] and in assay [9] was > 100 µM (inactive) in each case. In assay [8], the GI50 was > 100 µM (inactive).

These data come from ChEMBL document CHEMBL1201862, “PubChem BioAssay data set” (2004).
